Experimental data published in patent US20090227503A1, “PARATHYROID HORMONE TREATMENT FOR ENHANCED ALLOGRAFT AND TISSUE-ENGINEERED RECONSTRUCTION OF BONE DEFECTS” (UNIVERSITY OF ROCHESTER, priority 2008, published 2009).

Legend:
[1] = system: non-union tibial fracture; experiment: Union Area from clinical CT of a patient with non-union tibial fracture; format: in vivo, human; details: one patient, after 4 months of teriparatide treatment
Description: We used our custom MATLAB software to contour the segment of bone on one side of the fracture site similarly to contouring around the murine graft. The surface area forming union to the other side of the fracture was then estimated by the software. […] FIG. 12 illustrates clinical x-rays of an anonymous patient's fractured tibia before and after 4 months of teriparatide therapy, 160 and 165, respectively and CT scan data of the patient before and after 4 months of teriparatide therapy, 170 and 175, respectively; and Union Area, shown in grey in 170 and 175, of the patient before and after 4 months of teriparatide therapy, 180 and 185, respectively. The effects of teriparatide on fracture healing were quantified as a 2.8 fold increase in Union Area.

[2] = system: grafted femurs; experiment: Histology of grafted femurs (Example 4); format: in vivo, mice
Protocol: A second cohort of 16 animals underwent the same surgery with sacrifice of 8 animals at 4 weeks and 8 animals at 6 weeks post-surgery to evaluate the degree of vascularization of the graft and callus region using vascular profusion as described previously (Duvall 2004). Half of the animals were treated with PTH, and the other half with saline. After micro-CT imaging for vascular analysis, specimens were processed for histology. Mid-sagittal sections were stained with alcian blue, hematoxylin, eosin and orange G. Micro-CT images were manually resliced using NIH ImageJ software in the same plane as the histology sections to compare the imaging modalities (data not shown).

[3] = system: contralateral intact femurs; experiment: Torsion testing of contralateral intact femurs (Example 4); format: in vivo, mice
Protocol: Four-mm long bone allografts were harvested from donor mice, and were processed and implanted into intecalary defects 195 in the femur of other mice and secured in place using a stainless steel intramedullary pin 190, as shown in FIG. 13. One week after surgery, daily injections of 40 μg/kg hrPTH (1-34) (Lilly, Inc., Indianapolis, Ind.) were initiated in half of the mice, while the others received injections of saline control. Weekly x-rays were taken to monitor progression (Faxitron X-Ray LLC, Wheeling, Ill.).
One cohort of the study groups used 14 mice from each treatment (PTH and control) for imaging and mechanical material testing and were sacrificed 6 weeks after surgery. Each femur was harvested by disarticulating the hip and knee and removing the intramedullary stainless-steel pin. Specimens were moistened with saline and frozen at −20° C. until thawed for micro-CT imaging and torsion testing. Specimens were scanned at […] isotropic resolution using the Scanco VivaCT 40 (Scanco Medical AG, Bassersdorf, Switzerland). From these 3D images, the graft and callus bone volumes (BVGraft, BVCallus) were measured by manual segmentation, followed by standardized thresholding at a grayscale corresponding to 750 mgHA/cm^3. The cross-sectional polar moment of inertias (PMI) were computed for each slice throughout the grafted region and the maximum, minimum and average PMI (PMIMax, PMIMin, PMIAve) were investigated to determine their contribution to the biomechanics of the grafted femurs.
The Union Ratio was also calculated. The Union Ratio measures the graft surface area upon which mineralized callus has formed. If the voxels adjacent to the graft surface are boney callus, the area of that region of the graft is measured and normalized to the total graft surface area. Imaging data (not shown) indicated the bare surface of the graft in blue, with regions of union to the callus depicted as red. Each half (proximal and distal) of the graft was evaluated separately and the lesser ratio of union area to total graft surface area was given as the Union Ratio for that specimen. Callus formation that bridged from host-to-host over the graft was determined by evaluating serial axial cross sections from micro-CT images and given a binary result. These samples were then mechanically tested in torsion. Yield torque (TYield), ultimate torque (TUlt), torsional rigidity (TR), toughness (or work to failure) and the twist at ultimate torque were determined for each specimen. Finally, the mode of failure for each specimen was determined using an x-ray image analysis (not shown).

CC[C@H](C)[C@H](NC(=O)[C@H](CCC(=O)O)NC(=O)[C@H](CO)NC(=O)[C@@H](NC(=O)[C@@H](N)CO)C(C)C)C(=O)N[C@@H](CCC(N)=O)C(=O)N[C@@H](CC(C)C)C(=O)N[C@@H](CCSC)C(=O)N[C@@H](Cc1cnc[nH]1)C(=O)N[C@@H](CC(N)=O)C(=O)N[C@@H](CC(C)C)C(=O)NCC(=O)N[C@@H](CCCCN)C(=O)N[C@@H](Cc1cnc[nH]1)C(=O)N[C@@H](CC(C)C)C(=O)N[C@@H](CC(N)=O)C(=O)N[C@@H](CO)C(=O)N[C@@H](CCSC)C(=O)N[C@@H](CCC(=O)O)C(=O)N[C@@H](CCCN=C(N)N)C(=O)N[C@H](C(=O)N[C@@H](CCC(=O)O)C(=O)N[C@@H](Cc1c[nH]c2ccccc12)C(=O)N[C@@H](CC(C)C)C(=O)N[C@@H](CCCN=C(N)N)C(=O)N[C@@H](CCCCN)C(=O)N[C@@H](CCCCN)C(=O)N[C@@H](CC(C)C)C(=O)N[C@@H](CCC(N)=O)C(=O)N[C@@H](CC(=O)O)C(=O)N[C@H](C(=O)N[C@@H](Cc1cnc[nH]1)C(=O)N[C@@H](CC(N)=O)C(=O)N[C@@H](Cc1ccccc1)C(=O)O)C(C)C)C(C)C [PTH, PTH (1-34)]
increase in mineralized Union Area [1]: 2.8 fold
osteoclastic graft resorption ([2]; PTH treatment for 6 weeks): did not stimulate osteoclastic graft resorption
cartilage formation at the site of bone injury ([2]; persisted through 4 weeks after surgery): Cartilage formation was increased
torsional mechanics of intact contralateral femurs ([3]; 6 weeks of PTH treatment): did not show a significant increase in torsional mechanics
TR ([3]; PTH Contra, 6 weeks, mean): 1284 N*mm^2/Rad
Tult ([3]; PTH Contra, 6 weeks, mean): 22.6 N*mm
Twist at Tult ([3]; PTH Contra, 6 weeks, mean): 0.029 Rad/mm
Tyield ([3]; PTH Contra, 6 weeks, mean): 15.1 N*mm
Work to TUlt ([3]; PTH Contra, 6 weeks, mean): 0.401 Nmm*Rad/mm
Work to TYield ([3]; PTH Contra, 6 weeks, mean): 0.151 Nmm*Rad/mm
